Data on ten compounds can be found in BindingDB's records for doi:10.7270/Q2959G44 (Burnham Center For Chemical Genomics, 2012).

Molecules are shown by their SMILES.

Sequence of Dual specificity protein phosphatase 3 (P51452 whole entry): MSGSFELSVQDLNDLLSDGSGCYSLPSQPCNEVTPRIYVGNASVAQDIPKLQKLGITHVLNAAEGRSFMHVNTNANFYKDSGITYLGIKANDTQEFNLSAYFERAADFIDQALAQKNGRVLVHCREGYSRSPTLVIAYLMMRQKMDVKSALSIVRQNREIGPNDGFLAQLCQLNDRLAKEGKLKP

This experiment concerns the target Dual specificity protein phosphatase 3 (Homo sapiens, UniProt P51452). Description: VHR phosphatase inhibition, dose response, selectivity assay for STEP inhibitor project, biochemical (AID 602374).
`S=C1N=C(C23CC4CC(CC(C4)C2)C3)CC(c2ccc3c(c2)OCO3)N1` (stereo not given) displayed an IC50 of 3520 nM. To `CCOc1cc(CN=Nc2nc(O)c(CC(=O)O)s2)ccc1OCc1ccc(Cl)cc1Cl` [2-[2-[(N''E)-N''-[4-(2,4-dichlorobenzyl)oxy-3-ethoxy-benzylidene]hydrazino]-4-keto-2-thiazolin-5-yl]acetic acid] belongs 2420 nM; to `C=c1c(O)c(O)c(=C2C(=O)C(=O)C(C)C(=O)C2=O)c(O)c1O` (stereo not given) [(3E)-5-hydroxy-6-methyl-3-(2,3,5-trihydroxy-4-methyl-6-oxo-1-cyclohexa-2,4-dienylidene)cyclohex-5-ene-1,2,4-trione], 1270 nM; to `O=C1C(=O)N(CCCO)C(c2ccc(Br)cc2)C1C(=O)c1ccc(Br)cc1` (stereo not given) [(4E)-5-(4-bromophenyl)-4-[(4-bromophenyl)-oxidanyl-methylidene]-1-(3-oxidanylpropyl)pyrrolidine-2,3-dione], 73400 nM. Next, `S=C1N=C2C(=C3SCCS3)CCCC2C(c2ccccc2)N1` (stereo not given) [MLS000516376]: 1230 nM.

`CCN(CC)P(=O)(NC(=O)C(Cl)(Cl)Cl)N(CC)CC` [MLS000564159] registered an IC50 of 3250 nM.

Compound `CSc1ccc(CN=Nc2ccc(S(=O)(=O)Nc3ccccc3C(=O)O)cc2[N+](=O)[O-])cc1` [MLS002245633] yielded an IC50 of 1270 nM. Next, `O=C(N/N=C/C1C=CC=CC1=O)c1cccc([N+](=O)[O-])c1` (stereo not given) [MLS002667988]: 3130 nM; `COc1ccc(OC)c(-n2c(O)c3o[nH]c(-c4ccccc4Cl)c-3c2=O)c1` [SMR000046218]: 833 nM.

Compound `COc1ccc(CN=Nc2nc(O)c(CC(=O)O)s2)cc1OCc1ccc(Cl)cc1Cl` [[2-({3-[(2,4-dichlorobenzyl)oxy]-4-methoxybenzylidene}hydrazono)-4-oxo-1,3-thiazolidin-5-yl]acetic acid] had an IC50 of 4790 nM.
